# Results as given in patent publication US6420367B1, “Pyrimidine derivatives exhibiting antitumor activity” (Shionogo & Co., Ltd., priority 1998, dated 2002).
# Key:
# [1] = test system: DT-R cells (pRRE3-luc-transfected v-ki-ras-transformed NIH3T3 cells); signal derived from Ras oncogene products; test: Inhibitory effect against cellular signaling derived from Ras oncogene products: luciferase reporter, dissociation of DT-R from DT-C activity (MAC); assay type: cell-based, mouse; conditions: minimal tested concentration at which luciferase activities of DT-C cells and DT-R cells dissociated
# How it was run: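 Value is a minimal active concentration: lowest dose where Ras-responsive reporter (DT-R) luciferase diverges from SV40-minimal-promoter control (DT-C). Both transfected v-Ki-ras NIH3T3 lines received 3-fold serial dilutions for 24 h at 37 °C in 10% FCS medium before lysis and luminometry.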
# [2] = test system: DT-C cells (pGV-P-transfected v-ki-ras-transformed NIH3T3 cells); test: Luciferase activity in control DT-C cells (IC50-C): non-specific transcription-inhibitory effect or cytotoxicity; assay type: cell-based, mouse; conditions: tested concentration nearest to 50% inhibition in DT-C cells; index of non-specific transcription inhibition or cytotoxicity
# Source text: Test Example 1 Inhibitory Effect Against Cellular Signaling Derived From Ras Oncogene Products
# 1) Establishment of Cell Lines Used in Assay
# Based on the reporter plasmid (pGV-P (Toyo Ink, Japan)), in which luciferase gene was ligated to SV40-derived minimal promoter, we constructed a plasmid designated pRRE3-luc by inserting 3 copies of chemically synthesized oligonucleotides (Sequence: CAGGATATGACTCT, derived from mouse NVL-3 (M. A. Reddy et al.(1992)Mol. Endocrinol., 6, 1051)) into upstream of the promoter. v-ki-ras-transformed NIH3T3 cells (DT cells, provided by Dr. Makoto Noda (Kyoto Univ., School of medicine)) were transfected with this plasmid by liposome-mediated transfection and transfected cell lines stably incorporated and maintained each plasmid were obtained. We named pGV-P and pRRE3-transfected cell line as DT-C and DT-R, respectively and used in the assay described below.
# 2) Preparation of Samples
# i) All the cell lines were cultured in Dulbecco's Modified Essential Medium (DMEM: 10% Fetal Calf Serum(FCS: Hyclone, USA)) including […] kanamycin (Meiji Seika, Japan) in humidified incubator under condition of 5% CO2 at 37° C.
# ii) DT-C and DT-R cells were seeded at 2500 cells/well into flat-bottom 96 well multiplate (Sumitomo bakelite) and incubated for 24 hours.
# iii) Test compounds were prepared as 1 mg/ml DMSO solution.
# iv) The solution of test compounds were added to the culture. Tested compounds are used at the concentration from […] to 0.51 ng/ml with by 3-fold dilution.
# v) After 24 hours, the culture supernatant was completely aspirated and […] of cell-lysing solution (PGC-50 (Toyo Ink, Japan)) was added before cells were dried up. In order to the cells were lysed completely, multiwell plates were left at room temperature for 10 to 30 min. The plates were wrapped up and stored at −20° C. till the day of measurement.
# 3) Measurement of Samples
# i) Melt the samples by putting 96 well multiplate at 37° C. and add 90 μl/well 25 mM Tris (pH 7.5).
# ii) Transfer 50 μl of the sample (110 μl) to the 96 well microplate for measurement (Microlite 1 (Dynatech)).
# iii) Measure the samples by the luminometer, LUMINOUS CT9000D (Dia-Yatron, Japan). We used Pickagene luminescence kit PGL2000 or LT2.0 (Toyo Ink, Japan) as substrates for luminescence measurement (50 μl/well).
# 4) Judgment of the Results
# i) The luciferase activity of DT-C cells and DT-R cells were plotted in the graph where the relative activity and the compound concentration were expressed as Y-axis and X-axis, respectively. We judged by the degree of dissociation between the activities of DT-C cells and DT-R cells as an index.
# ii) Concretely, efficacy of the compound was expressed by two values described below.
# b) Among the points of concentration tested, the concentration which is the nearest to 50% inhibition concentration at DT-C cells (IC50-C), was shown as an index of non-specific transcription-inhibitory effect or of cytotoxicity. In case of positive compounds, 50% inhibition concentration above the area of active concentration in DT-C cells was expressed as IC50-C.
# [3] = test system: human squamous lung cancer Ma44; test: In vitro cell growth inhibition test, MTT assay; assay type: cell-based; conditions: MTT assay 4 days after compound addition
# How it was run: (§1)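 Read-out is MTT-based cell growth inhibition, run in parallel on human lung, colon and pancreatic (PANC-1) tumour lines.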
# [4] = test system: human squamous lung cancer RERF-RC-AI; test: In vitro cell growth inhibition test, MTT assay; assay type: cell-based; conditions: MTT assay 4 days after compound addition
# How it was run: as §1
# [5] = test system: human lung adenocarcinoma A549; test: In vitro cell growth inhibition test, MTT assay; assay type: cell-based; conditions: MTT assay 4 days after compound addition
# How it was run: as §1
# [6] = test system: human pancreas cancer PANC-1; test: In vitro cell growth inhibition test, MTT assay; assay type: cell-based; conditions: MTT assay 4 days after compound addition
# How it was run: as §1
# human colon cancer HT29 = test: In vitro cell growth inhibition test, MTT assay; assay type: cell-based; conditions: MTT assay 4 days after compound addition
# How it was run: as §1
SMILES,"IC50, Ma44 [3] [µg/mL]","IC50, RERF-LC-AI [4] [µg/mL]","IC50, A549 [5] [µg/mL]","IC50, PANC-1 [6] [µg/mL]","IC50, HT29 (human colon cancer HT29) [µg/mL]",MAC (Minimal Active Concentration) [1] [µg/mL],IC50-C [2] [µg/mL]
CCCCNC(=Nc1nc(C)ncc1CSc1nnc(-c2ccc([N+](=O)[O-])cc2)o1)NCCCC [Compound A-128],0.044,0.036,0.047,0.026,0.042,0.0412,3.33
CCNC(=Nc1nc(C)ncc1CSc1nnc(-c2ccc([N+](=O)[O-])cc2N)o1)NCC [Compound A-75],0.0058,0.004,0.0087,0.0065,0.0038,<0.000508,>10
CCCNC(=Nc1nc(C)ncc1CSc1nnc(-c2ccc(C)cc2)o1)NCCC [Compound A-143],0.033,0.023,0.052,0.02,0.024,0.0412,1.11
CNC(=Nc1nc(C)ncc1CSc1nnc(-c2ccc([N+](=O)[O-])cc2OC)o1)NC [Compound A-162],0.014,0.0085,0.028,0.0093,0.0067,0.123,>10
CNC(=Nc1ncncc1CSc1nnc(-c2ccc(N)cc2)o1)NC [Compound A-174],0.076,0.0067,0.032,0.014,0.012,0.37,>10
CCNC(=Nc1nc(C)ncc1CSc1nnc(-c2ccc(N)nc2)o1)NCC [Compound D-6],0.32,0.037,0.33,0.085,0.039,0.370,>10
CCNC(=Nc1nc(C)ncc1CSc1nnc(-c2ccc(N)c(O)c2)o1)NCC [Compound A-89],0.86,0.016,0.15,0.049,0.05,0.123,>10

# Now from value to compound, other results behind:
"IC50, Ma44 [3] [µg/mL]","IC50, RERF-LC-AI [4] [µg/mL]","IC50, A549 [5] [µg/mL]","IC50, PANC-1 [6] [µg/mL]","IC50, HT29 (human colon cancer HT29) [µg/mL]",SMILES,MAC (Minimal Active Concentration) [1] [µg/mL],IC50-C [2] [µg/mL]
0.015,0.01,0.047,0.015,0.068,CCNC(=Nc1nc(C)ncc1CSc1nnc(-c2ccc([N+](=O)[O-])cc2)o1)NC [Compound A-133],0.0137,>10
0.017,0.015,0.028,0.017,0.018,CCCNC(=Nc1nc(C)ncc1CSc1nnc(-c2ccc([N+](=O)[O-])cc2)o1)NCCC [Compound A-127],0.0137,3.33
0.017,0.012,0.025,0.014,0.013,CCNC(=Nc1nc(C)ncc1CSc1nnc(-c2ccc([N+](=O)[O-])cc2)o1)NCC.Cl [Compound A-187],0.0137,>10
